These results are taken from US4585866A, “Treatment of migraine with substituted tropyl benzoate derivatives” (Merrell Dow Pharmaceuticals Inc., priority 1984, dated 1986).

Data set [1] has as its target T1, 5-HT M-receptor (Oryctolagus cuniculus, UniProt A0A5F9C9J3).
T1 construct: determining their pA2 values in the isolated rabbit heart; from tissue; host or cells: isolated rabbit heart (receptor on the cardiac neurones)
T1 sequence (A0A5F9C9J3 1-494): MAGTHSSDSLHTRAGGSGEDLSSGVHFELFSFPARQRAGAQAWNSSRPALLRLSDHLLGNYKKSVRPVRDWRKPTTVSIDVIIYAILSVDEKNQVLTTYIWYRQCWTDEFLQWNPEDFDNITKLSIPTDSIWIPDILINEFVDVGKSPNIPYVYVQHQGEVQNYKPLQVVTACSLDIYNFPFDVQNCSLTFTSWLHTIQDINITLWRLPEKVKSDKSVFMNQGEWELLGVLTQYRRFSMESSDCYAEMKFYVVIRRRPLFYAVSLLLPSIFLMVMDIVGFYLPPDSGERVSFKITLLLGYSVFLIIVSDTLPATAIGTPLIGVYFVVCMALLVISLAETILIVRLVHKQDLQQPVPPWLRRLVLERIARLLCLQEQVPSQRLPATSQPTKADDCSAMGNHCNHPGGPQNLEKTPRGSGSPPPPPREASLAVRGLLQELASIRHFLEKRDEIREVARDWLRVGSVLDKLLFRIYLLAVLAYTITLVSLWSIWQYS
The data set can be described thus: pA2 against 5-HT in isolated rabbit heart. Conditions: isolated rabbit heart; negative log of molar concentration of antagonist reducing effect of twice the ED50 of 5-HT to that of the ED50; read-out: pA2 5-HT (converted). Format: cell-based. As to the method: (§1) The activity of the compounds against 5-HT can be assessed by determining their pA2 values in the isolated rabbit heart as described by J. R. Fozard et al, Eur. J. Pharmacol., 59, 195-210 (1979). In the method described, the molar concentration of antagonist which reduces the effects of twice the ED50 of 5-HT to that of the ED50 in the absence of antagonist is determined. The pA2 value is the negative logarithm of said molar concentrations.

The subject of a further data set is 5-HT D-receptor. Conditions: at the doses used clinically for the treatment of migraine; cited from earlier work.
Data set [2] deals with T1, 5-HT M-receptor. As to conditions: reported by J. R. Fozard et al, Eur. J. Pharmacol. 1979 / 1978; cited from earlier work.
Data set [3] has as its system Von Bezold-Jarisch Reflex (5-HT M-receptor). The data set can be described thus: Antagonism of the Von Bezold-Jarisch reflex evoked by 5-HT in the anaesthetized rat. Format: in vivo, rat (male Sprague-Dawley). Conditions: comparison in words, i.v. From the text: The activity of these compounds against 5-HT can be assessed in vivo by measurement of the effect of the compound on the Von Bezold-Jarisch Reflex induced by 5-HT injected intravenously into the rat (A. S. Paintal, Physiol. Rev. 53, 159-227, 1973). The transient caridac slowing arises from an increased afferent vagus activity arising from stimulation by 5-HT of sensory afferent fibres in and around the heart (see Example 3).
Antagonism of the Von Bezold-Jarisch reflex evoked by 5-HT in the anaesthetized rat was measured for tropyl 3,5-dimethoxybenzoate (A), tropyl 3,5-dimethylbenzoate (B) and tropyl 3,5-dichlorobenzoate (C) using the following method.
Male Sprague-Dawley rats weighing 250-300 g are anaesthetized with urethane, 1.25 g/kg injected intraperitoneally and set up for recording blood pressure and heart rate as described in J. R. Fozard et al, J. Cardiovas. Pharmacol. 2, 229-245 (1980). A submaximal dose of 5-HT ([…]) is given repeatedly into the cannulated jugular vein and changes in heart rate are quantified. Antagonists are given intravenously and the doses required to just inhibit the response to 5-HT (threshold dose) or to inhibit the response to 5-HT by 50% (ED50) are determined.

For data set [4], the system named is guinea-pig ileum. The data set can be described thus: Inhibition of standard response to acetylcholine, guinea-pig ileum. Format: cell-based. Conditions: Cavia porcellus, agonist acetylcholine, read-out: Concentration to inhibit standard response to stimulants by 50% (IC50). From the text:
(§2) A selection of classical in vitro pharmacological test preparations (rat uterus, rat fundus, guinea-pig ileum, guinea-pig taenia caeci) were set up according to well-established procedures (see "Pharmacological Experiments on Isolated Preparations" Staff of the Department of Pharmacology, University of Edinburgh, Livingstone, Edinburgh 1970). Various spasmogens were used to elicit contraction of these tissues though mechanisms other than the 5-HT "M" receptor. The concentrations of tropyl 3,5-dimethoxybenzoate (A), tropyl 3,5-dimethylbenzoate (B) and tropyl 3,5-dichlorobenzoate (C) which reduced the effects of a submaximal dose of agonist by 50% were determined (IC50). The results are set forth in Table VI below in which the compounds are identified by the reference letters used above.

Data set [5] deals with rat fundus. The data set can be described thus: Inhibition of standard response to acetylcholine, rat fundus. The class given is cell-based. As to conditions: agonist acetylcholine, read-out: Concentration to inhibit standard response to stimulants by 50% (IC50).
Description: as §2

A short description of a further data set: LD50 in the rat. Conditions: in vivo, iv.
The next data set relates to mouse. The data set can be described thus: LD50 in the mouse. The class given is in vivo. As to conditions: as shown by LD50 values in the mouse and rat.
The next data set in a line: LD50 in the mouse. Format: in vivo. As to conditions: in vivo, mouse.
Data set [6] addresses T2, rabbit heart (5-HT M receptor) (Oryctolagus cuniculus, UniProt A0A5F9C9J3).
T2 construct: RABBIT HEART; from tissue; host or cells: rabbit heart
T2 sequence (A0A5F9C9J3 1-494): T1 sequence (A0A5F9C9J3 1-494)
The data set can be described thus: Inhibition of standard response to 5-HT, rabbit heart. Format: cell-based. As to conditions: rabbit heart, agonist 5-HT; read-out: Concentration to inhibit standard response to stimulants by 50% (IC50). As for the experimental part:
as §1, §2

In data set [7] the test system is rat uterus. The data set can be described thus: Inhibition of standard response to oxytocin, rat uterus. The class given is cell-based. As to conditions: agonist oxytocin, read-out: Concentration to inhibit standard response to stimulants by 50% (IC50).
Description: as §2

The next data set relates to guinea-pig taenia caeci. The data set can be described thus: Inhibition of standard response to calcium, guinea-pig taenia caeci. Format: cell-based. As to conditions: Cavia porcellus; guinea-pig taenia caeci in potassium-depolarized Tyrode solution, agonist calcium; read-out: Concentration to inhibit standard response to stimulants by 50% (IC50).
Description: as §2
*In potassiumdepolarized Tyrode solution

In data set [8] the test system is rat uterus. The data set can be described thus: Inhibition of standard response to 5-HT, rat uterus. The class given is cell-based. As to conditions: agonist 5-HT, read-out: Concentration to inhibit standard response to stimulants by 50% (IC50).
Description: as §2

Data set [9] relates to guinea-pig ileum. The data set can be described thus: Inhibition of standard response to histamine, guinea-pig ileum. The class given is cell-based. As to conditions: Cavia porcellus, agonist histamine, read-out: Concentration to inhibit standard response to stimulants by 50% (IC50).
Description: as §2

Data set [10] relates to rat fundus. The data set can be described thus: Inhibition of standard response to 5-HT, rat fundus. Format: cell-based. As to conditions: agonist 5-HT, read-out: Concentration to inhibit standard response to stimulants by 50% (IC50).
Description: as §2

Some results are limits rather than exact numbers.

With `COc1cc(C(=O)O[C@H]2C[C@H]3CC[C@@H](C2)N3C)cc(OC)c1OC` [tropyl 3,4,5-trimethoxybenzoate], at 5-HT M-receptor [1], the Kb is 3.16 nM.
Same read-out and setting: with `COc1ccc(C(=O)O[C@H]2C[C@H]3CC[C@@H](C2)N3C)cc1OC` [tropyl 3,4-dimethoxybenzoate, reference compound] the figure was 63.1 nM; with `CN1[C@@H]2CC[C@H]1C[C@@H](OC(=O)c1ccc(Cl)cc1)C2` [tropyl 4-chlorobenzoate, reference compound], 100 nM.
Take `Cc1ccc(C(=O)O[C@H]2C[C@H]3CC[C@@H](C2)N3C)cc1` [tropyl 4-methylbenzoate, reference compound]: at 5-HT M-receptor [1], the Kb is 15.8 nM.
On to `CN(C)CCCN1c2ccccc2Sc2ccc(Cl)cc21` [chlorpromazine], for which the “5-HT D-receptor antagonism” value in the data set on 5-HT D-receptor is given as 5-HT D-receptor antagonists.
On to `COC(=O)C1C2CCC(CC1OC(=O)c1ccccc1)N2` (single isomer, unassigned) [nor(-) cocaine], for which the “pA2 value (5-HT)” value at 5-HT M-receptor [2] was 7.7.
Take `O=C(O[C@H]1C[C@H]2CC[C@@H](C1)N2)c1cc(Cl)cc(Cl)c1` [nortropyl 3,5-dichlorobenzoate, reference compound]: the Kb on 5-HT M-receptor [1] is 15.8 nM.
For `CC[C@@H](CO)NC(=O)[C@@H]1C=C2c3cccc4c3c(cn4C)C[C@H]2N(C)C1` [methysergide], the “5-HT D-receptor antagonism” value with 5-HT D-receptor is 5-HT D-receptor antagonists.
For `CN1[C@@H]2CC[C@H]1C[C@@H](OC(=O)c1ccccc1)C2` [tropylbenzoate, reference compound], the “pA2 value (5-HT)” value at 5-HT M-receptor [2] is 7.12. Also, the Kb on 5-HT M-receptor [1] was 63.1 nM.
Regarding `CN(C)CCC=C1c2ccccc2CCc2ccccc21` [amitriptyline], the “5-HT D-receptor antagonism” value in the data set on 5-HT D-receptor is reported as 5-HT D-receptor antagonists.
Regarding `Cc1cccc(C(=O)O[C@H]2C[C@H]3CC[C@@H](C2)N3C)c1` [tropyl 3-methylbenzoate], the Kb on 5-HT M-receptor [1] is 6.31 nM.
In the case of `COc1cc(OC)cc(C(=O)O[C@H]2C[C@H]3CC[C@@H](C2)N3C)c1` [tropyl 3,5-dimethoxybenzoate], in data set [3], the “potency relative to metoclopramide” value is “many times more potent than metoclopramide”. Besides, the IC50 in the data set on guinea-pig ileum [4] is 9.56 µM; in the data set with rat fundus [5] it was 13.1 µM; in data set [6] it was 9.4 nM; in the data set with rat uterus [7], > 52.5 µM; with guinea-pig taenia caeci, 36.1 µM; with rat uterus [8] it was > 52.5 µM. Also, the IC50 in the data set with guinea-pig ileum [9] stood at 6.61 µM; in the data set with rat fundus [10] it was 40 µM. For the same molecule, the LD50 in “LD50 in the rat” was 13 mg/kg; in “LD50 in the mouse” (ip), 28 mg/kg; in “LD50 in the mouse” (iv), 29 mg/kg; in “LD50 in the mouse” (sc) it was 17 mg/kg; in the data set “LD50 in the mouse” (oral) it was 160 mg/kg. Besides, in the data set on mouse, the toxicity in words entry is “relatively non-toxic”. In addition, at 5-HT M-receptor [1], the Kb was 3.98 nM.
Turning to `CN1[C@@H]2CC[C@H]1C[C@@H](OC(=O)c1cccc(Cl)c1)C2` [tropyl 3-chlorobenzoate], the Kb at 5-HT M-receptor [1] is 2.51 nM.
Turning to `CC(C)NC[C@H](O)COc1cccc2ccccc12` (racemic) [propanolol], the “5-HT D-receptor antagonism” value with 5-HT D-receptor is recorded as 5-HT D-receptor antagonists.

Broadly, the LD50 is the dose at which mortality reaches 50%.
